Laboratory results reported in PubChem BioAssay AID602335 (The Scripps Research Institute Molecular Screening Center, 2012).
The source made the active and inactive calls. The rule behind the calls is not given here.

Experiments:
[1] = biological target: Monoacylglycerol lipase ABHD6 (Mus musculus) (UniProt Q8R2Y0); assay: in situ ABHD6 versus DAGLb inhibition – cell-based, gel-based competitive ABPP, fluorescence, selectivity assay for DAGLb inhibitor project, dose response (AID 602335)
[2] = biological target: Diacylglycerol lipase-beta (Mus musculus) (UniProt Q91WC9); assay: as above; conditions: DAGLb
Chain of Diacylglycerol lipase-beta (Mus musculus) (Q91WC9 whole entry, looked up): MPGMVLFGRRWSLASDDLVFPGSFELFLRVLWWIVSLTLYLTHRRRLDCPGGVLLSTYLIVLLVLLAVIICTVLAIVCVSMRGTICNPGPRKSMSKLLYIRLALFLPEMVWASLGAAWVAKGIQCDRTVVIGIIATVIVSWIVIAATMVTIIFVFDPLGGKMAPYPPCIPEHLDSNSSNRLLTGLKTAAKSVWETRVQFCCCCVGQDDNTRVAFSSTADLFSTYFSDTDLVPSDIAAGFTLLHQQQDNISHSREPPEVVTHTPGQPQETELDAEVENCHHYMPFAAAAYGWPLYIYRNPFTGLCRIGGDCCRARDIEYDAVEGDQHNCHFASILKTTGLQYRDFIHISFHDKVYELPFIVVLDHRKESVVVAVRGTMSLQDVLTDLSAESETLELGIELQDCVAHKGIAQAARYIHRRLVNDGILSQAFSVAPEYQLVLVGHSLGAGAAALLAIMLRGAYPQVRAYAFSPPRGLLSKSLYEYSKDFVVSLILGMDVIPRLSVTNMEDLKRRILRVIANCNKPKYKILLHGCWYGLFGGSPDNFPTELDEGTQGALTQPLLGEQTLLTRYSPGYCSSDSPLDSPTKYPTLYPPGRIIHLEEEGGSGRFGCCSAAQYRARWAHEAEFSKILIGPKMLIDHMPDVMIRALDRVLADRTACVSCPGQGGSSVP

Chain of Monoacylglycerol lipase ABHD6 (Mus musculus) (Q8R2Y0 whole entry, looked up): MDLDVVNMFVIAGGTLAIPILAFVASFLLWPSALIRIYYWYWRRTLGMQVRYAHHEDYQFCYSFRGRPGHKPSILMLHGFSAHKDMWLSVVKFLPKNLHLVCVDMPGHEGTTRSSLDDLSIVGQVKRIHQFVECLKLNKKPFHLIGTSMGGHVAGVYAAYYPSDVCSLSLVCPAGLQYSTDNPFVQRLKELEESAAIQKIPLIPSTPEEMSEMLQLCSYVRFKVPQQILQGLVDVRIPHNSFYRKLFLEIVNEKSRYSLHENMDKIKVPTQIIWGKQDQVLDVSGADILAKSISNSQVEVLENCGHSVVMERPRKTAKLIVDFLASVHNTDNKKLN

Row | IC50 [1] [nM] | IC50 [2] | SMILES
1 | 1.3 | > 100 nM (inactive) | COc1ccc(-c2ccc(-c3cn(C(=O)N4CCCCC4c4ccccc4)nn3)cc2)cc1 (stereo unspecified)
2 |  | > 100 nM (inactive) | O=C(O)c1cccc(-c2ccc(-c3cn(C(=O)N4CCCCC4Cc4ccccc4)nn3)cc2)c1 (stereo unspecified)
3 | 0.17 | > 100 nM (inactive) | O=C(N1CCCCC1c1ccccc1)n1cc(-c2ccc(-c3ccccc3)cc2)nn1 (stereo unspecified)
4 |  | > 100 nM (inactive) | O=C(N1CCCCC1c1ccccc1)n1cc(-c2ccc(-c3cccc(CO)c3)cc2)nn1 (stereo unspecified)
